Experimental data: patent US20240009150A1, “CAPSAICYNS IN THE TREATMENT OF LEAKY GUT” (AXICHEM AB [SE]/[SE], priority 2020, published 2024)
“Also recorded” adds a separate entry of the source. Where two headings read alike, the source gives them in different places. Marks after values point to notes of the source that are not given here.

Experiments:
[1] = tested on: Chromobacterium violaceum CV026; assay: Quorum sensing inhibition, disc-diffusion assay with Chromobacterium violaceum CV026 (QS and antibacterial zones); assay type: cell-based; conditions: for QS (zone of quorum sensing inhibition): disc diffusion, zone past the disk; for zone of inhibition at 7.81 µg/mL / zone of inhibition at 15.63 µg/mL / zone of inhibition at 31.13 µg/mL / zone of inhibition at 62.5 µg/mL / zone of inhibition at 125 µg/mL / zone of inhibition at 250 µg/mL / zone of inhibition at 500 µg/mL: Chromobacterium violaceum
Experimental: Chromobacterium violaceum CV026 is a violacein negative, double mini-Tn5 mutant from C. violaceum (ATCC 31532) that was used to identify quorum sensing inhibition.
A stock solution of 1000 ug of compound V and capsaicin was prepared by dissolving 1000 μg in 100 μl of ethanol and 900 μl of sterile water. The stock solutions were sequentially diluted with double volumes of solvent (10% aqueous ethanol solution) to yield 500/250/125/62.5/31.25/15.625/7.81 μg/ml test solutions.
Chromobacterium violaceum CV026 was used to determine the anti-quorum sensing activity. Inducer N-hexanoyl homoserine lactone (C6-HSL) was purchased from Sigma-Aldrich. CV026 was cultivated in Luria-Bertani (LB) medium (LB, 5 g yeast extract, 10 g tryptone, 5 g NaCl, 1 L water) at 30° C. overnight under aerobic conditions. A standard disc-diffusion assay was used to detect anti-quorum sensing activity of V and capsaicin by making use of double layer culture plates. 15 ml LB medium (2.5% agar) was overlaid with 15 ml LB (1.0% agar) containing 50 μl C. violaceum CV026 with 20 μg/ml-1 kanamycin and 50 ng/ml C6-AHL. Test concentrations of V and capsaicin were added onto sterile disks (8 mm diameter) and placed on the agar. The plates were then incubated overnight at 30° C. and quorum sensing inhibition was detected as a less colored/colourless zone around the disk, where viable cells, indicative of growth but quorum sensing inhibition, were present. Measurements were made from the outer edge of the discs to the edge of the zones of anti-quorum sensing inhibition. The formulation solvent (10% aqueous ethanol) was used as the negative control.
The biosensor strain, C. violaceum CV026, is a mutant of the wild type strain and is unable to produce its own AHL signal. It only responds to exogenous active signal molecules and produces a purple color, violacein. Loss of this purple color around the disk when incubated with exogenous AHL is thus indicative of QS inhibition by the test compounds. More specifically, the zone (mm past the disk) of QS inhibition results in an opaque disc with no purple color but bacterial growth. […] The results are shown below in Table 1, wherein QS denotes quorum sensing.

[2] = tested on: P. aeruginosa (ATCC® 15442); assay: Inhibition of biofilm formation, crystal violet staining assay; assay type: cell-based, Pseudomonas aeruginosa; conditions: for Biofilm (OD 595 nm): 24 hr; for Biofilm (OD 595 nm) / biofilm formed (CVSA), in words: 30° C.; for inhibition of biofilm formation, conclusion in words: any dose tested; for biofilm formed (CVSA), in words: concentrations less than 125 ug/ml
Experimental: A stock solution of 1000 ug of V and capsaicin was prepared by dissolving 1000 μg in 100 μl of ethanol and 900 μl of sterile water. The stock solutions were sequentially diluted with […] of solvent (10% aqueous ethanol solution) to yield 500/125//31.25/7.81 μg/ml test solutions.
(§1) P. aeruginosa (ATCC® 15442) was used to determine the biofilm inhibition activity. Inducer N-hexanoyl homoserine lactone (C6-HSL) was purchased from Sigma-Aldrich. ATCC® 15442 was cultivated in Luria-Bertani (LB) medium (LB, 5 g yeast extract, 10 g tryptone, 5 g NaCl, 1 L water) at 30° C. overnight under aerobic conditions.
(§2) Biofilm formation was quantified with modifications using the method described by Stepanovic et al. (Journal of Microbiological Methods, 2000, 40(2), 175-19) with modifications. Using a 96-well microplate duplicate the test solutions were filled at the above selected doses. Cultures were grown for 18 hr in LB at 30° C. and adjusted to OD 0.1 at 600 nm. 20 μL of the culture were added into each well and the remainder of the volume to 200 μL per well was filled with LB. Unused external wells were filled with 200 μL of sterile water to prevent evaporation.
(§3) After 24 hr of incubation, supernatants were discarded, and the wells were washed three times with 200 μL of sterile phosphate buffered saline (PBS). Bacteria adhered to the wells were fixed with 200 μL of methanol for 15 min, the methanol was discarded, and the plates dried at 25° C.
(§4) Each well was stained with 200 μL of 0.3% (w/v) crystal violet solution for 5 min at 25° C. Crystal violet excess was pipetted out, and the wells were rinsed five times with sterile PBS. 200 μL of 33% (v/v) glacial acetic acid were added to the wells for 30 min to solubilise the dye adhered to the cell walls. Optical density (OD) was measured at 595 nm using a microplate spectrophotometer as a direct measure of biofilm formation. P. aeruginosa in 3% DMSO will be used as the negative control.

[3] = tested on: Salmonella enterica subsp. enterica serovar Paratyphi C (ATCC® BAA1714™); assay: Inhibition of biofilm formation with different capsaicyn compounds, crystal violet staining assay (Example 6); assay type: cell-based; conditions: for Biofilm (OD 595 nm): 24 hr; for interference with the biofilm readings, in words: 125 μg/ml dose
Experimental: as §2, §3, §4
A stock solution of 500 μg of phenylcapsaicin, capsaicin, compound a, compound b, compound c, was prepared by dissolving 500 μg in 100 μl of ethanol and 900 μl of sterile water. The stock solutions were sequentially diluted with quadruple volumes of solvent (10% aqueous ethanol solution) to yield 125/31.25 (32)/7.81 (8)/1.95 (2) μg/ml test solutions.
as §1, with “ATCC® BAA1714™” for “P. aeruginosa (ATCC® 15442)”, “BAA1714™” for “15442”, “37°” for “30°”
Crystal violet staining assay was performed as in Experiment 3, using ATCC® BAA1714™ in 3% DMSO as the control.

[4] = CV026, read-out: Antibacterial (zone of growth inhibition)
[5] = CV026, read-out: QS (zone of quorum sensing inhibition)

Compound	QS (zone of quorum sensing inhibition) ([1]; 125 μg/mL)	QS (zone of quorum sensing inhibition) ([1]; 250 μg/mL)	QS (zone of quorum sensing inhibition) ([1]; 500 μg/mL)	zone of inhibition at 7.81 µg/mL [1, 4] [mm]	zone of inhibition at 15.63 µg/mL [1, 4] [mm]	zone of inhibition at 31.13 µg/mL [1, 4] [mm]	zone of inhibition at 62.5 µg/mL [1, 4] [mm]	zone of inhibition at 125 µg/mL [1, 4] [mm]	zone of inhibition at 250 µg/mL [1, 4] [mm]	zone of inhibition at 500 µg/mL [1, 4] [mm]	zone of inhibition at 7.81 µg/mL [1, 5] [mm]	zone of inhibition at 15.63 µg/mL [1, 5] [mm]	zone of inhibition at 31.13 µg/mL [1, 5] [mm]	Biofilm (OD 595 nm) ([2]; 7.81 μg/mL)	Biofilm (OD 595 nm) ([2]; 31.125 μg/mL)	Biofilm (OD 595 nm) ([2]; 125 μg/mL)	inhibition of biofilm formation, conclusion in words [2]	biofilm formed (CVSA), in words [2]	Biofilm (OD 595 nm) ([3]; 2 μg/mL, 30° C.)	Biofilm (OD 595 nm) ([3]; 8 μg/mL, 30° C.)	other results
COc1cc(CNC(=O)CCCC/C=C/C(C)C)ccc1O [Capsaicin, (E)-N-(4-hydroxy-3-methoxybenzyl)-8-methylnon-6-enamide, reference compound]	NO	NO	NO	0	0	0	8	9	14	11	0	0	0	7.1^a OD 595 nm	7.0^a OD 595 nm	7.2^a OD 595 nm	did not exhibit any biofilm formation inhibition	did not show any reduction of biofilm formation	8.2	8.6	QS (zone of quorum sensing inhibition) ([1]; 62.5 μg/mL): NO; quorum sensing inhibiting activity (in words) ([1]; non antibacterial doses (31.25/15.625/7.81 μg/ml)): did not exhibit quorum sensing inhibiting activity; Biofilm (OD 595 nm) ([3]; 32 μg/mL, 30° C.): 8.2 OD 595 nm; interference with the biofilm readings, in words [3]: antibacterial interference; biofilm formation inhibition activity, in words ([3]; any dose tested (125, 32, 8, 2 μg/ml)): did not show reduction biofilm formation
COc1cc(CNC(=O)CCCCC#Cc2ccccc2)ccc1O [Phenylcapsaicin, N-[(4-hydroxy-3-methoxyphenyl)methyl]-7-phenylhept-6-ynamide]	NO	NO	NO	0	0	0	3	5	9	10	3	9	11	1.7^b OD 595 nm	1.3^b OD 595 nm	1.9^b OD 595 nm	potent inhibitor of biofilm formation	significantly reduced	2.5	2.8	quorum sensing inhibiting activity (in words) ([1]; 61.5/31.25/15.625/7.81 μg/ml doses): strong to weak; zone of inhibition at 62.5 µg/mL [1, 5]: 7 mm; antibacterial activity (in words) ([1]; higher doses (500/250/125 μg/ml)): antibacterial activity; Biofilm (OD 595 nm) ([3]; 32 μg/mL, 30° C.): 3.4 OD 595 nm; interference with the biofilm readings, in words [3]: antibacterial interference; biofilm formed (CVSA), in words ([3]; 32, 8 and 2 μg/ml, 30° C.): significantly reduced; also recorded: good inhibitor of biofilm formation
